Assay: molar heat capacity at constant pressure
Settings: 101.33 kPa

CC(C)C(C)O (stereo unspecified) [3-methyl-2-butanol]
Settings | molar heat capacity at constant pressure [J/K/mol]
84.8 K, Glass | 64.32
85.35 K, Glass | 64.92
86.61 K, Glass | 65.12
87.96 K, Glass | 65.91
88.5 K, Glass | 66.12
88.57 K, Glass | 66.46
89.76 K, Glass | 68.19
90.5 K, Glass | 68.52
91.72 K, Glass | 69.65
92.44 K, Glass | 69.5
93.66 K, Glass | 70.82
94.37 K, Glass | 70.42
95.6 K, Glass | 72.69
96.3 K, Glass | 72.33
97.54 K, Glass | 73.76
98.24 K, Glass | 73.35
99.48 K, Glass | 75.44
100.17 K, Glass | 75.01
101.42 K, Glass | 76.81
102.11 K, Glass | 76.45
103.37 K, Glass | 78.23
104.06 K, Glass | 77.94
105.32 K, Glass | 79.77
106 K, Glass | 79.31
107.95 K, Glass | 80.89
109.9 K, Glass | 82.57
110.42 K, Glass | 83.46
110.85 K, Glass | 82.24
111.85 K, Glass | 84.29
112.07 K, Glass | 84.44
113.8 K, Glass | 85.97
114.04 K, Glass | 86.22
115.76 K, Glass | 87.69
116 K, Glass | 87.96
117.71 K, Glass | 89.53
119.67 K, Glass | 91.4
121.44 K, Glass | 93.27
121.62 K, Glass | 93.55
122.07 K, Glass | 94.36
123.27 K, Glass | 95.77
123.58 K, Glass | 95.92
125.24 K, Glass | 98.99
125.53 K, Glass | 98.88
127.2 K, Glass | 102.7
127.49 K, Glass | 103.22
129.14 K, Glass | 107.45
134.82 K, Liquid | 136.07
135.09 K, Liquid | 140.35
136.74 K, Liquid | 138.24
137.01 K, Liquid | 138.6
138.7 K, Liquid | 138.95
138.97 K, Liquid | 138.85
140.69 K, Liquid | 139.38
140.95 K, Liquid | 139.07
142.67 K, Liquid | 139.54
142.93 K, Liquid | 139.3
144.66 K, Liquid | 139.76
144.91 K, Liquid | 139.63
146.65 K, Liquid | 140.2
146.9 K, Liquid | 139.94
148.63 K, Liquid | 140.52
148.88 K, Liquid | 140.31
150.86 K, Liquid | 140.31
152.85 K, Liquid | 140.9
154.84 K, Liquid | 141.35
156.74 K, Liquid | 142.41
156.82 K, Liquid | 141.64
158.09 K, Liquid | 142.73
158.81 K, Liquid | 142.09
160.22 K, Liquid | 143.13
160.79 K, Liquid | 142.41
162.32 K, Liquid | 143.63
162.78 K, Liquid | 142.9
164.37 K, Liquid | 144.12
164.76 K, Liquid | 143.07
166.39 K, Liquid | 145.96
166.75 K, Liquid | 143.51
168.38 K, Liquid | 145.62
168.73 K, Liquid | 143.97
170.37 K, Liquid | 146.06
170.72 K, Liquid | 144.62
172.37 K, Liquid | 145.89
172.7 K, Liquid | 145.15
174.37 K, Liquid | 146.25
174.69 K, Liquid | 145.71
176.36 K, Liquid | 147.39
176.67 K, Liquid | 146.37
178.34 K, Liquid | 147.47
178.66 K, Liquid | 147.29
180.33 K, Liquid | 147.95
180.64 K, Liquid | 148.09
182.33 K, Liquid | 148.74
182.63 K, Liquid | 149.07
184.32 K, Liquid | 149.21
184.61 K, Liquid | 149.6
186.31 K, Liquid | 149.62
186.6 K, Liquid | 150.32
188.3 K, Liquid | 149.99
188.59 K, Liquid | 150.72
190.3 K, Liquid | 150.82
190.58 K, Liquid | 151.56
192.29 K, Liquid | 151.37
192.57 K, Liquid | 152.24
194.28 K, Liquid | 152
194.56 K, Liquid | 152.93
196.27 K, Liquid | 152.73
196.55 K, Liquid | 153.74
198.26 K, Liquid | 153.78
198.54 K, Liquid | 154.39
200.25 K, Liquid | 154.7
200.53 K, Liquid | 155.32
202.24 K, Liquid | 155.43
202.51 K, Liquid | 156.2
204.23 K, Liquid | 156.17
204.5 K, Liquid | 157.11
206.21 K, Liquid | 156.91
206.48 K, Liquid | 158.08
208.2 K, Liquid | 157.81
208.47 K, Liquid | 159.14
210.18 K, Liquid | 158.87
210.46 K, Liquid | 160.17
212.17 K, Liquid | 159.83
214.15 K, Liquid | 160.86
216.12 K, Liquid | 161.85
218.08 K, Liquid | 163.18
220.04 K, Liquid | 164.39
221.99 K, Liquid | 165.9
223.93 K, Liquid | 167.49
225.86 K, Liquid | 168.89
227.79 K, Liquid | 170.77
229.71 K, Liquid | 172.05
231.62 K, Liquid | 173.69
233.53 K, Liquid | 175.59
235.43 K, Liquid | 177.3
237.32 K, Liquid | 178.86
239.2 K, Liquid | 180.5
241.08 K, Liquid | 182.29
242.96 K, Liquid | 184.02
244.82 K, Liquid | 185.3
246.68 K, Liquid | 187.07
248.53 K, Liquid | 188.6
250.37 K, Liquid | 190.8
252.21 K, Liquid | 192.67
254.03 K, Liquid | 194.25
255.85 K, Liquid | 196.29
257.67 K, Liquid | 198.36
259.47 K, Liquid | 200.36
261.27 K, Liquid | 202.49
263.06 K, Liquid | 204.59
264.84 K, Liquid | 206.44
266.62 K, Liquid | 208.79
268.39 K, Liquid | 210.85
270.15 K, Liquid | 212.97
271.91 K, Liquid | 215.09
273.66 K, Liquid | 217.48
275.41 K, Liquid | 219.86
277.14 K, Liquid | 222.01
278.87 K, Liquid | 224.26
280.6 K, Liquid | 226.68
282.31 K, Liquid | 228.97
284.02 K, Liquid | 230.98
285.72 K, Liquid | 233.15
287.42 K, Liquid | 234.9
289.11 K, Liquid | 237.64
290.79 K, Liquid | 239.38
292.47 K, Liquid | 241.39
294.15 K, Liquid | 243.38
295.81 K, Liquid | 245.77
297.47 K, Liquid | 247.45
299.13 K, Liquid | 249.65
300.78 K, Liquid | 250.94

Source: the NIST ThermoML archive (doi:10.1021/je060411g)
